Where a SMILES comes first, the peptide text is derived from it. Bridges are numbered along the chain shown (N, C = ends). [ ]: non-standard residue; d: D form. The star is where a group is joined. C16 diacid = O=C(O)CCCCCCCCCCCCCCC(=O)*; AEEA = NCCOCCOCC(=O)O
Key:
CD4+ T cells = test: Dendritic Cell-T cell (DC-T) proliferation assay (ProImmune); conditions: 22 donors; Percentage Stimulation above Background ≥0.5%, SEM=2; peptides 0.34 μM
Text: A panel of peripheral blood mononuclear cell (PBMC) samples from healthy human donors was selected from the ProImmune Ltd (UK) cell bank. Each PBMC sample was HLA (Human Leukocyte Antigen)-typed and stored in liquid nitrogen (vapor-phase) prior to use. The panel was selected so that HLA class II alleles known to be highly expressed in the global population were well represented (data not shown). Donors were predominantly selected by DRB1 allele expression.
A Dendritic Cell-T cell (DC-T) proliferation assay (ProImmune Ltd) was used to identify the presence or potential T cell epitopes within the peptides. Adherent donor PBMCs were cultured with appropriate growth factors to generate monocyte-derived DCs. DCs were then loaded with a control (control 1 and control 2), the peptide (Agent 1, Agent 2, and Agent 3, see FIG. 8A) or left untreated. The peptides were loaded at a final concentration of 0.34 μM.
Mature antigen-loaded DCs were then co-cultured at a fixed ratio with autologous CFSE-labelled T cells in multi-well plates. Each test condition was set up in eight replicate wells and cells were incubated for 7 days. At the end of the incubation period, cell samples were stained with anti-CD4 antibody, then washed and fixed for by flow cytometric analysis. Proliferation was determined by measuring a decrease in CFSE intensity.
Data were compiled to determine antigen-induced proliferation per individual donor, calculated as Percentage Stimulation above Background. The frequency of positive donor cell responses (Percentage Antigenicity) was calculated as the proportion of responding donors out of total donors. Values were then standardized against the strength of response (an average of the Percentage Stimulation value obtained across accepted donors for each protein) to give a response index (RI).
Data obtained by flow cytometric evaluation of cell samples was analyzed using FlowJo Software (Tree Star, Inc.). The number of CFSE-dim (i.e., proliferating) cells was determined for each sample in eight replicate wells. Counts for the CD4^+ CFSE dim population in each sample were expressed as a proportion of the total CD4^+ population. The eight replicate values were then used to calculate Percentage Stimulation above Background (proportion of CD4^+ CFSE dim cells with antigen stimulation minus the proportion of CD4^+ CFSE dim cells without antigen stimulation).
Background threshold values are based on data from unstimulated cells for which a maximum acceptable resting proliferation threshold is established.
In evaluating antigenicity, it is also appropriate to take account of the frequency of donor cell responses across the study cohort. A positive response (Percentage Stimulation above Background ≥0.5%) in 2 or more independent donor samples is considered indicative of a potential T cell epitope.
Depending on the size of the study, (20, 40 or 50 donors), two responding donors sets a threshold of 10%, 5% or 4% respectively. Thus, following calculation of Percentage Stimulation above Background, the frequency of positive donor cell responses (Percentage Antigenicity) is expressed as the proportion of responding donors out of total accepted donors screened.
When calculating the antigenicity of a protein it is important to consider the strength of a response as well as the frequency of that response. This is because some binding responses may be pan-allele, but these responses may not be very strong. The strength of positive donor cell responses was determined by taking an average of the percentage stimulation value obtained across accepted donors for each protein. Determining a Response Index (RI) through the multiplication of strength and frequency values is more representative of the level of antigenicity.

[1] = Pharmacokinetics after intravenous bolus, rat; type: in vivo; conditions: 10 mg/kg bolus IV
Procedure: Test agents were formulated in 2% (v/v) propylene glycol in 25 mM HEPES, pH 7.4 and administered with a bolus injection at 10.0 mg/kg via the tail vain to male CD-1 mice (Charles River Laboratories) or male Wistar rats (Charles River Laboratories), or with a 30-min intravenous infusion at 4 mg/kg to male cynomolgus monkeys.
Blood samples were collected at 2.5, 5, 10, 30, 60, 120, 240 and 480 minutes after administration (mouse and rat), or at 5, 15, 30, 60, 120, 240, 360, 480 and 1440 min (Agent 1) or at 5, 15, 30, 45, 60, 90, 150, 240 and 480 min (Agent 2) after the start of infusion in monkeys. Samples were immediately mixed with a protease inhibitor cocktail (Roche cOmplete™ EDTA-free) before being cooled and centrifuged for plasma separation. Plasma samples were frozen and stored at −20° C. until analysis.
To rat samples, blank rat plasma was added up to a volume of 100 μl. […]
Mouse and rat samples: Separation was done with a C18 column (Phenomenex Kinetex XB—C18 (100×2.1 mm, 1.7 μm)), using a gradient between 1% formic acid in water and 2% DMSO in acetonitrile (Agent 1) or acetonitrile (Agent 2). […] The range of quantitation was 4-20,000 ng/mL.
Non-compartmental PK analysis on plasma concentration versus time data was analyzed by non-compartmental approaches using the WinNonlin software program (version 6.3 or above, Pharsight, Mountain View, CA). […]

FIG. 10A = conditions: mouse, in vivo, iv, 10 mg/kg
Procedure: Table printed on a drawing sheet, FIG. 10A
The patent's description of the figure: FIGS. 10A-10C. Pharmacokinetic profile and parameter for peptides after intravenous administration. FIG. 10A) Mouse PK data (10 mg/kg, bolus IV, n=3 per timepoint). FIG. 10B) Rat PK data (10 mg/kg, bolus IV, n=3 per timepoint). FIG. 10C) Non-human primate (NHP) PK data (4 mg/kg, 30 min IV infusion, n=3). Error bars represent the standard deviation (SD).
First reader's note: Mouse PK parameters; the legend of the plot on the same sheet gives 10 mg/kg (IV) for both agents.

For `CC[C@H](C)[C@H](NC(=O)[C@H](CC(N)=O)NC(=O)[C@H](CCCCN)NC(=O)[C@H](C)NC(=O)[C@H](CCCCN)NC(=O)[C@H](CCCCN)NC(=O)COCCOCCNC(=O)COCCOCCNC(=O)CCCCCCCCCCCCCCC(=O)O)C(=O)N[C@H](C(=O)N[C@@H](CC(C)C)C(=O)N[C@@H](CC(C)C)C(=O)N[C@@H](CCCCN)C(=O)NCC(=O)N[C@@H](CC(C)C)C(=O)N[C@@H](CCC(=O)O)C(=O)N[C@H](C(=O)N[C@H](C(=O)N[C@@H](CC(N)=O)C(=O)N[C@@H](CC(=O)O)C(=O)N[C@@H](Cc1c[nH]c2ccccc12)C(=O)N[C@@H](Cc1c[nH]cn1)C(=O)N[C@@H](Cc1ccccc1)C(=O)N[C@H]1CSSC[C@@H](C(N)=O)NC(=O)[C@@H](CCCNC(=N)N)NC(=O)[C@H](CCCNC(=N)N)NC(=O)[C@@H](CCCCN)NC(=O)[C@H](CCCCN)NC(=O)[C@@H](CCCNC(=N)N)NC(=O)CNC(=O)[C@@H](CCCNC(=N)N)NC(=O)[C@H](CCCNC(=N)N)NC(=O)[C@@H](CCCNC(=N)N)NC1=O)[C@@H](C)CC)C(C)C)C(C)C` [Agent 1] ({C16 diacid-AEEA-AEEA}-KKAKNIVLLKGLEVINDWHFC[dR]R[dR]G[dR]K[dK]R[dR]C-NH2; disulfide 21-31), the “Response Index (RI)” value (CD4+ T cells) was 0.294, the percentage antigenicity (CD4+ T cells) was 22.73% and the “increase in exposure (AUC0-inf) compared to Agent 2, at equal dose” value [1] was about 27 fold. For the same molecule, the C0 (FIG. 10A) was 30500 ng/mL.

From patent US20240350647A1, “STING SENSITIZING AGENTS” (STipe Therapeutics ApS, priority 2023, published 2024)
